Reference: US8710043B2, “TRPM8 antagonists and their use in treatments” (Amgen Inc., priority 2011, dated 2014)

Biological target: T1, human TRPM8 (Homo sapiens, UniProt Q7Z2W7)
T1 construct: expressed in transfected cells; host or cells: Chinese hamster ovary (CHO) cells, T-REx tetracycline-inducible system, co-transfected with aequorin
Assay: Luminescence readout assay for measuring intracellular calcium, icilin activation
Assay type: cell-based
Conditions: CHO cells expressing human TRPM8, aequorin luminescence, 1 μM icilin activation; read-out: hTRPM8 IC50
Outline: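 The read-out was luminescence reporting intracellular calcium, recorded by a CCD-based luminometer. Compounds were preincubated for 2.5 min before agonist challenge with 1 μM icilin. Human TRPM8 was expressed in a stable T-REx CHO line, induced with 0.5 μg/mL tetracycline the day before.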

T1 sequence (Q7Z2W7 whole entry): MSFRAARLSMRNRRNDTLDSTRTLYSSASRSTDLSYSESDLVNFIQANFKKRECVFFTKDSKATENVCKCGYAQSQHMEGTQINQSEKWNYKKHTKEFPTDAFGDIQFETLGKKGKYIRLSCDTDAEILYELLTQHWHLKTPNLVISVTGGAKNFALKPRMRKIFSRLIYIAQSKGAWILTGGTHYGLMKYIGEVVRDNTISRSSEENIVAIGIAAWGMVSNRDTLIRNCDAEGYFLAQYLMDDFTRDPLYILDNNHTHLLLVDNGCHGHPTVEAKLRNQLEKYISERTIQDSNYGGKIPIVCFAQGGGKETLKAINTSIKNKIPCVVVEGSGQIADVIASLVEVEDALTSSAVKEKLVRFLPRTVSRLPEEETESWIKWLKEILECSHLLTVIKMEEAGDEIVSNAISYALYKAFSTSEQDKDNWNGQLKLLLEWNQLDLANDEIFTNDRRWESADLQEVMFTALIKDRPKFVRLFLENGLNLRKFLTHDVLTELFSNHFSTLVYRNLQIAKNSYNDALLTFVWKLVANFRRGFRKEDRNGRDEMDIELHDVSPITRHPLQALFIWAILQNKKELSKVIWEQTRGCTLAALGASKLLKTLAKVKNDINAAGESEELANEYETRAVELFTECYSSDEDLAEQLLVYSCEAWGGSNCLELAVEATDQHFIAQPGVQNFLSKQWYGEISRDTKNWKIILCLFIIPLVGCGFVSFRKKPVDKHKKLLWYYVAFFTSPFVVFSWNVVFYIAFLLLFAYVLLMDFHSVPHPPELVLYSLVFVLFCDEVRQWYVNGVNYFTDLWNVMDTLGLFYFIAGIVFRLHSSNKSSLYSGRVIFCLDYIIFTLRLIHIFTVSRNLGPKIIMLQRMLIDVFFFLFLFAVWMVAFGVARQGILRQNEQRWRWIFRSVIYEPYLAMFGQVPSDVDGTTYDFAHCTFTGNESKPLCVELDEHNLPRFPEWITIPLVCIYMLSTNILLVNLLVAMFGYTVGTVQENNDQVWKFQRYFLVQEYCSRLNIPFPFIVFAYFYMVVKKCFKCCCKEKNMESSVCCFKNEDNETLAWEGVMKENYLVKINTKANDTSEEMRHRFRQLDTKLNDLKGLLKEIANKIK

IC50 [nM] | Structure (SMILES)
135 | O=C(N[C@@H](c1ccc(C(F)(F)F)cc1)c1ncccc1F)c1cccnc1 [Example 203, (S)-N-((3-fluoropyridin-2-yl)(4-(trifluoromethyl)phenyl)methyl)nicotinamide]
105 | O=C(NC(c1ccc(C(F)(F)F)cc1)c1ncccc1F)c1cccc(F)c1 (centres unmarked) [Example 209, 3-fluoro-N-((3-fluoropyridin-2-yl)(4-(trifluoromethyl)phenyl)methyl)benzamide]
150 | COc1ccc(C(=O)N[C@@H](c2ccc(C(F)(F)F)cc2)c2ncccc2C(F)(F)F)nc1 [Example 210, (S)-5-methoxy-N-((4-(trifluoromethyl)phenyl)(3-(trifluoromethyl)pyridin-2-yl)methyl)picolinamide]
115 | O=C(N[C@@H](c1ccc(C(F)(F)F)cc1)c1ncccc1C(F)(F)F)c1cccc(C(F)(F)F)c1 [Example 211, (S)-3-(trifluoromethyl)-N-((4-(trifluoromethyl)phenyl)(3-(trifluoromethyl)pyridin-2-yl)methyl)benzamide]
121 | COc1cccc(C(=O)NC(c2ccc(C(F)(F)F)cc2)c2ncccc2F)c1 (centres unmarked) [Example 214, N-((3-fluoropyridin-2-yl)(4-(trifluoromethyl)phenyl)methyl)-3-methoxybenzamide]
143 | CS(=O)(=O)c1cccc(C(=O)N[C@@H](c2ccc(C(F)(F)F)cc2)c2ncccc2F)c1 [Example 216, (S)-N-((3-fluoropyridin-2-yl)(4-(trifluoromethyl)phenyl)methyl)-3-(methylsulfonyl)benzamide]
147 | CS(=O)(=O)c1ccc(C(=O)N[C@@H](c2ccc(C(F)(F)F)cc2)c2ncccc2F)cc1 [Example 217, (S)-N-((3-fluoropyridin-2-yl)(4-(trifluoromethyl)phenyl)methyl)-4-(methylsulfonyl)benzamide]
230 | O=C(Cc1ccccc1)N[C@@H](c1ccc(C(F)(F)F)cc1)c1ncccc1C(F)(F)F [Example 218, (S)-2-phenyl-N-((4-(trifluoromethyl)phenyl)(3-(trifluoromethyl)pyridin-2-yl)methyl)acetamide]
105 | Cc1ncoc1C(=O)NC(c1ccc(C(F)(F)F)cc1)c1ncccc1F (centres unmarked) [Example 221]
119 | O=C(N[C@@H](c1ccc(C(F)(F)F)cc1)c1ncccc1C(F)(F)F)c1cc2ccccc2s1 [Example 222, (S)-N-((4-(trifluoromethyl)phenyl)(3-(trifluoromethyl)pyridin-2-yl)methyl)benzo[b]thiophene-2-carboxamide]
1400 | COCCC(=O)N[C@@H](c1ccc(C(F)(F)F)cc1)c1ncccc1C(F)(F)F [Example 224, (S)-3-methoxy-N-((4-(trifluoromethyl)phenyl)(3-(trifluoromethyl)pyridin-2-yl)methyl)propanamide]
487 | O=C(N[C@@H](c1ccc(C(F)(F)F)cc1)c1ncccc1C(F)(F)F)C1CCOC1 (stereo partly drawn) [Example 225, N-((S)-(4-(trifluoromethyl)phenyl)(3-(trifluoromethyl)pyridin-2-yl)methyl)THF-3-carboxamide]
2310 | O=C(O)c1cncc(C(=O)N[C@@H](c2ccc(C(F)(F)F)cc2)c2ncccc2C(F)(F)F)c1 [Example 226, (S)-5-(((4-(trifluoromethyl)phenyl)(3-(trifluoromethyl)pyridin-2-yl)methyl)carbamoyl)nicotinic acid]
41.4 | O=C(N[C@@H](c1ccc(C(F)(F)F)cc1)c1ncccc1C(F)(F)F)c1cccc(F)c1 [Example 227, (S)-3-fluoro-N-((4-(trifluoromethyl)phenyl)(3-(trifluoromethyl)pyridin-2-yl)methyl)benzamide]
39.7 | O=C(N[C@@H](c1ccc(C(F)(F)F)cc1)c1ncccc1C(F)(F)F)c1ccccn1 [Example 228, (S)-N-((4-(trifluoromethyl)phenyl)(3-(trifluoromethyl)pyridin-2-yl)methyl)picolinamide]
354 | CC(C)(C)OC(=O)N1CC(CC(=O)N[C@@H](c2ccc(C(F)(F)F)cc2)c2ncccc2C(F)(F)F)C1 [Example 229, (S)-tert-butyl 3-(2-oxo-2-(((4-(trifluoromethyl)phenyl)(3-(trifluoromethyl)pyridin-2-yl)methyl)amino)ethyl)azetidine-1-carboxylate]
83.1 | CC1(C)C[C@H]1c1cccnc1[C@@H](NC(=O)c1ccc2ncccc2c1)c1ccc(C(F)(F)F)cc1 [Example 233, N-((S)-(3-((R)-2,2-dimethylcyclopropyl)pyridin-2-yl)(4-(trifluoromethyl)phenyl)methyl)quinoline-6-carboxamide]
169 | O=C(N[C@@H](c1ccc(C(F)(F)F)cc1)c1ncccc1C(F)(F)F)[C@@H]1CCCO1 [Example 234, (S)-N-((S)-(4-(trifluoromethyl)phenyl)(3-(trifluoromethyl)pyridin-2-yl)methyl)THF-2-carboxamide]
547 | O=C(Cc1cccnc1)N[C@@H](c1ccc(C(F)(F)F)cc1)c1ncccc1C(F)(F)F [Example 238, (S)-2-(pyridin-3-yl)-N-((4-(trifluoromethyl)phenyl)(3-(trifluoromethyl)pyridin-2-yl)methyl)acetamide]

Second part, the compound before the results:

Structure (SMILES) | IC50 [nM]
O=C(N[C@@H](c1ccc(C(F)(F)F)cc1)c1ncccc1C(F)(F)F)c1ccc(Br)cn1 [Example 205, (S)-5-bromo-N-((4-(trifluoromethyl)phenyl)(3-(trifluoromethyl)pyridin-2-yl)methyl)picolinamide] | 140
N#Cc1ccc(C(=O)N[C@@H](c2ccc(C(F)(F)F)cc2)c2ncccc2C(F)(F)F)cn1 [Example 206, (S)-6-cyano-N-((4-(trifluoromethyl)phenyl)(3-(trifluoromethyl)pyridin-2-yl)methyl)nicotinamide] | 67.5
O=C(O)c1cccc(C(=O)N[C@@H](c2ccc(C(F)(F)F)cc2)c2ncccc2F)c1 [Example 207, (S)-3-(((3-fluoropyridin-2-yl)(4-(trifluoromethyl)phenyl)methyl)carbamoyl)benzoic acid] | 121
O=C(N[C@@H](c1ccc(C(F)(F)F)cc1)c1ncccc1C(F)(F)F)c1cccc(Cl)c1 [Example 208, (S)-3-chloro-N-((4-(trifluoromethyl)phenyl)(3-(trifluoromethyl)pyridin-2-yl)methyl)benzamide] | 41.7
O=C(N[C@@H](c1ccc(C(F)(F)F)cc1)c1ncccc1C(F)(F)F)c1ccnnc1 [Example 212, (S)-N-((4-(trifluoromethyl)phenyl)(3-(trifluoromethyl)pyridin-2-yl)methyl)pyridazine-4-carboxamide] | 81.5
CS(=O)(=O)Nc1ccc(C(=O)N[C@@H](c2ccc(C(F)(F)F)cc2)c2ncccc2F)cc1 [Example 213, (S)-N-((3-fluoropyridin-2-yl)(4-(trifluoromethyl)phenyl)methyl)-4-(methylsulfonamido)benzamide] | 43
O=C(N[C@@H](c1ccc(C(F)(F)F)cc1)c1ncccc1C(F)(F)F)c1cccc(OC(F)(F)F)c1 [Example 219, (S)-3-(trifluoromethoxy)-N-((4-(trifluoromethyl)phenyl)(3-(trifluoromethyl)pyridin-2-yl)methyl)benzamide] | 137
O=C(N[C@@H](c1ccc(C(F)(F)F)cc1)c1ncccc1C(F)(F)F)c1ccno1 [Example 220, (S)-N-((4-(trifluoromethyl)phenyl)(3-(trifluoromethyl)pyridin-2-yl)methyl)isoxazole-5-carboxamide] | 164
O=C1CCCC(C(=O)N[C@@H](c2ccc(C(F)(F)F)cc2)c2ncccc2C(F)(F)F)C1 (stereo partly drawn) [Example 223, 3-oxo-N-((S)-(4-(trifluoromethyl)phenyl)(3-(trifluoromethyl)pyridin-2-yl)methyl)cyclohexanecarboxamide] | 599
O=C(N[C@@H](c1ccc(C(F)(F)F)cc1)c1ncccc1C(F)(F)F)c1cnc2ccccc2c1 [Example 230, (S)-N-((4-(trifluoromethyl)phenyl)(3-(trifluoromethyl)pyridin-2-yl)methyl)quinoline-3-carboxamide] | 83.7
O=C(N[C@@H](c1ccc(C(F)(F)F)cc1)c1ncccc1C(F)(F)F)c1ccc(OC(F)(F)F)cc1 [Example 231, (S)-4-(trifluoromethoxy)-N-((4-(trifluoromethyl)phenyl)(3-(trifluoromethyl)pyridin-2-yl)methyl)benzamide] | 461
CC1(C)C[C@H]1c1cccnc1[C@@H](NC(=O)c1ccc2cccnc2c1)c1ccc(C(F)(F)F)cc1 [Example 232, N-((S)-(3-((R)-2,2-dimethylcyclopropyl)pyridin-2-yl)(4-(trifluoromethyl)phenyl)methyl)quinoline-7-carboxamide] | 15.9
C=CCc1cccnc1[C@@H](NC(=O)[C@@H](C)c1ccccc1)c1ccc(C(F)(F)F)cc1 [Example 235, (S)-N-((S)-(3-allylpyridin-2-yl)(4-(trifluoromethyl)phenyl)methyl)-2-phenylpropanamide] | 226
CC(C)(C)Cc1cccnc1[C@@H](NC(=O)c1ccc2ncccc2c1)c1ccc(C(F)(F)F)cc1 [Example 236, (S)-N-((3-neopentylpyridin-2-yl)(4-(trifluoromethyl)phenyl)methyl)quinoline-6-carboxamide] | 239
CO[C@@](C(=O)N[C@@H](c1ccc(C(F)(F)F)cc1)c1ncccc1C(F)(F)F)(c1ccccc1)C(F)(F)F [Example 237, 3,3,3-trifluoro-2-methoxy-2-phenyl-N-((S)-(4-(trifluoromethyl)phenyl)(3-(trifluoromethyl)pyridin-2-yl)methyl)propanamide] | 733

Same assay, conditions: hTRPM8 IC50, CHO cells expressing human TRPM8, aequorin luminescence, 1 μM icilin activation

Structure (SMILES) | IC50 [nM]
Cn1nc(C(=O)N[C@@H](c2ccc(C(F)(F)F)cc2)c2ncccc2C(F)(F)F)c2ccccc21 [Example 215, (S)-1-methyl-N-((4-(trifluoromethyl)phenyl)(3-(trifluoromethyl)pyridin-2-yl)methyl)-1H-indazole-3-carboxamide] | 84.5
